The values that follow come from patent US11958835B1, “6-(6-bromo-2-oxo-2H-chromen-3-yl)-4-(4-chlorophenyl)-2-alkoxynicotinonitrile as antimicrobial agents” (KING FAISAL UNIVERSITY, priority 2023, dated 2024).

Assay type in all cases: cell-based
For assay [1], the system named is Bacillus cereus. Kind of assay: agar plate disc-diffusion, antibacterial, Bacillus cereus. Conditions: DMSO control zone subtracted; for inhibition zone, Bacillus Cereus, A: A = concentration of comp. = 10,000 μL; for inhibition zone, Bacillus Cereus, B: B = concentration of comp. = 30.000 μL; for inhibition zone, Bacillus Cereus, C: C = concentration of comp. = 50,000 μL. Here is the method:
(§1) The agar plate disc-diffusion method was applied. Sterilized filter papers (6 mm in diameter) were wetted with 10 μL of a solution of 6-(6-bromo-2-oxo-2H-chromen-3-yl)-4-(4-chlorophenyl)-2-ethoxynicotinonitrile (1) and 6-(6-bromo-2-oxo-2H-chromen-3-yl)-4-(4-chlorophenyl)-2-methoxynicotinonitrile (2) to be tested, containing […], and the discs were allowed to air dry. The discs were then placed onto the surface of agar plates (nutrient agar for bacteria and Sabouraud's dextrose agar for fungi) seeded with the test organism. Each plate contained 15 mL of the agar medium, previously seeded with 0.2 mL of the broth culture of each organism pregrown for 18 hours. The plates were incubated at 37° C. for 48 hours, and 72 hours for fungi. The inhibition zones were measured in millimeters. Discs impregnated with DMSO were used as a control, and its inhibition zone was subtracted from the tested compound actual inhibition zone.
(§2) Their antibacterial screened against gram positive bacteria namely Bacillus cereus and Staphylococcus aureus and gram-negative bacterial strains namely Pseudomonas aeruginosa and Escherichia coli, while their antifungal activity screened against Aspergillus flavus and Chrysosporium keratinophilum as shown in Tables 1 and 2 using ciprofloxacin as a reference.

In assay [2] the test system is Staphylococcus aureus. The assay is described as follows: agar plate disc-diffusion, antibacterial, Staphylococcus aureus. To be noted: DMSO control zone subtracted; for inhibition zone, Staphylococcus aureus, A: A = concentration of comp. = 10,000 μL; for inhibition zone, Staphylococcus aureus, B: B = concentration of comp. = 30.000 μL; for inhibition zone, Staphylococcus aureus, C: C = concentration of comp. = 50,000 μL. Here is the method:
as §1, §2

The subject of assay [3] is Aspergillus flavus. Kind of assay: agar plate disc-diffusion, antifungal, Aspergillus flavus. Conditions: DMSO control zone subtracted; for inhibition zone, Aspergillus flavus, A: A = concentration of comp. = 10,000 μL; for inhibition zone, Aspergillus flavus, B: B = concentration of comp. = 30.000 μL; for inhibition zone, Aspergillus flavus, C: C = concentration of comp. = 50,000 μL. Here is the method: as §1, §2

In assay [4] the test system is Pseudomonas aeruginosa. Kind of assay: agar plate disc-diffusion, antibacterial, Pseudomonas aeruginosa. To be noted: DMSO control zone subtracted; for inhibition zone, Pseudomonas aeruginosa, A: A = concentration of comp. = 10,000 μL; for inhibition zone, Pseudomonas aeruginosa, B: B = concentration of comp. = 30.000 μL; for inhibition zone, Pseudomonas aeruginosa, C: C = concentration of comp. = 50,000 μL. The protocol:
as §1, §2

Assay [5] deals with Chrysosporium keratinophilum. Kind of assay: agar plate disc-diffusion, antifungal, Chrysosporium keratinophilum. Conditions: DMSO control zone subtracted; for inhibition zone, Chrysosporiam keratinophilum, A: A = concentration of comp. = 10,000 μL; for inhibition zone, Chrysosporiam keratinophilum, B: B = concentration of comp. = 30.000 μL; for inhibition zone, Chrysosporiam keratinophilum, C: C = concentration of comp. = 50,000 μL. Here is the method:
as §1, §2

Assay [6] deals with Escherichia coli. Kind of assay: agar plate disc-diffusion, antibacterial, Escherichia coli. Conditions: DMSO control zone subtracted; for inhibition zone, Escherichia coli, A: A = concentration of comp. = 10,000 μL; for inhibition zone, Escherichia coli, B: B = concentration of comp. = 30.000 μL; for inhibition zone, Escherichia coli, C: C = concentration of comp. = 50,000 μL. Here is the method:
as §1, §2

Take `O=C(O)c1cn(C2CC2)c2cc(N3CCNCC3)c(F)cc2c1=O` [Cip., ciprofloxacin, reference compound]: in assay [1], the “inhibition zone, Bacillus Cereus, A” value came out at 29 millimeters; the “inhibition zone, Bacillus Cereus, B” value was 30 millimeters; the “inhibition zone, Bacillus Cereus, C” value turned out to be 42 millimeters. In assay [2], the “inhibition zone, Staphylococcus aureus, A” value is listed as 43 millimeters; the “inhibition zone, Staphylococcus aureus, B” value amounted to 44 millimeters; the “inhibition zone, Staphylococcus aureus, C” value was 53 millimeters. Besides, in assay [3], the “inhibition zone, Aspergillus flavus, A” value is on record as 29 millimeters; the “inhibition zone, Aspergillus flavus, B” value worked out at 30 millimeters; the “inhibition zone, Aspergillus flavus, C” value stood at 42 millimeters. Besides, in assay [4], the “inhibition zone, Pseudomonas aeruginosa, A” value amounted to 29 millimeters; the “inhibition zone, Pseudomonas aeruginosa, B” value was 30 millimeters; the “inhibition zone, Pseudomonas aeruginosa, C” value amounted to 53 millimeters. Moreover, in assay [5], the “inhibition zone, Chrysosporiam keratinophilum, A” value came out at 29 millimeters; the “inhibition zone, Chrysosporiam keratinophilum, B” value worked out at 30 millimeters; the “inhibition zone, Chrysosporiam keratinophilum, C” value turned out to be 53 millimeters. In assay [6], the “inhibition zone, Escherichia coli, A” value worked out at 30 millimeters; the “inhibition zone, Escherichia coli, B” value stood at 39 millimeters; the “inhibition zone, Escherichia coli, C” value is recorded as 60 millimeters.

On to `COc1nc(-c2cc3cc(Br)ccc3oc2=O)cc(-c2ccc(Cl)cc2)c1C#N` [Compound 2, 6-(6-bromo-2-oxo-2H-chromen-3-yl)-4-(4-chlorophenyl)-2-methoxynicotinonitrile], for which, in assay [1], the “inhibition zone, Bacillus Cereus, A” value is on record as 25 millimeters; the “inhibition zone, Bacillus Cereus, B” value was 27 millimeters; the “inhibition zone, Bacillus Cereus, C” value was determined as 35 millimeters. Besides, in assay [2], the “inhibition zone, Staphylococcus aureus, A” value came to 17 millimeters; the “inhibition zone, Staphylococcus aureus, B” value turned out to be 23 millimeters; the “inhibition zone, Staphylococcus aureus, C” value is 29 millimeters. In addition, in assay [3], the “inhibition zone, Aspergillus flavus, A” value was 19 millimeters; the “inhibition zone, Aspergillus flavus, B” value worked out at 23 millimeters; the “inhibition zone, Aspergillus flavus, C” value is given as 33 millimeters. Also, in assay [4], the “inhibition zone, Pseudomonas aeruginosa, A” value came to 25 millimeters; the “inhibition zone, Pseudomonas aeruginosa, B” value is given as 31 millimeters; the “inhibition zone, Pseudomonas aeruginosa, C” value is 35 millimeters. For the same molecule, in assay [5], the “inhibition zone, Chrysosporiam keratinophilum, A” value is listed as 25 millimeters; the “inhibition zone, Chrysosporiam keratinophilum, B” value was 29 millimeters; the “inhibition zone, Chrysosporiam keratinophilum, C” value was 40 millimeters. Besides, in assay [6], the “inhibition zone, Escherichia coli, A” value was found to be 27 millimeters; the “inhibition zone, Escherichia coli, B” value came out at 34 millimeters; the “inhibition zone, Escherichia coli, C” value is 48 millimeters.

With `CCOc1nc(-c2cc3cc(Br)ccc3oc2=O)cc(-c2ccc(Cl)cc2)c1C#N` [Compound 1, 6-(6-bromo-2-oxo-2H-chromen-3-yl)-4-(4-chlorophenyl)-2-ethoxynicotinonitrile], in assay [1], the “inhibition zone, Bacillus Cereus, A” value is given as 15 millimeters; the “inhibition zone, Bacillus Cereus, B” value worked out at 20 millimeters; the “inhibition zone, Bacillus Cereus, C” value is recorded as 29 millimeters. Moreover, in assay [2], the “inhibition zone, Staphylococcus aureus, A” value was determined as 18 millimeters; the “inhibition zone, Staphylococcus aureus, B” value was 22 millimeters; the “inhibition zone, Staphylococcus aureus, C” value is on record as 27 millimeters. In assay [3], the “inhibition zone, Aspergillus flavus, A” value came to 20 millimeters; the “inhibition zone, Aspergillus flavus, B” value was 25 millimeters; the “inhibition zone, Aspergillus flavus, C” value is 34 millimeters. In addition, in assay [4], the “inhibition zone, Pseudomonas aeruginosa, A” value was found to be 21 millimeters; the “inhibition zone, Pseudomonas aeruginosa, B” value worked out at 26 millimeters; the “inhibition zone, Pseudomonas aeruginosa, C” value stood at 37 millimeters. Moreover, in assay [5], the “inhibition zone, Chrysosporiam keratinophilum, A” value worked out at 24 millimeters; the “inhibition zone, Chrysosporiam keratinophilum, B” value is listed as 27 millimeters; the “inhibition zone, Chrysosporiam keratinophilum, C” value amounted to 39 millimeters. In addition, in assay [6], the “inhibition zone, Escherichia coli, A” value is reported as 27 millimeters; the “inhibition zone, Escherichia coli, B” value is given as 37 millimeters; the “inhibition zone, Escherichia coli, C” value was determined as 45 millimeters.
